Values quoted from earlier work as cited in patent US7829124B2, “Use of Phyllanthus constituents for treating or preventing infections caused by hepatitis B-viruses” (priority 2001, dated 2010).

How the values were obtained:
[1] = target: T1, cAMP-dependent protein kinase of the rat liver (Rattus norvegicus, UniProt P27791)
T1 construct: the cAMP-dependent protein kinase of the rat liver; host or cells: rat liver

[2] = system: CA^2+-dependent protein kinase of the wheat embryo
[3] = system: CA^2+- and phopholipid-dependent protein kinase C (PKC) of the rat brain
[4] = system: HBV; settings: chronically infected patients
[5] = system: Bacillus subtilis; settings: 0.1 ml; extract 50 mg/ml, streptomycin 10 mg/ml
[6] = system: Staphylococcus aureus; settings: 0.1 ml; extract 50 mg/ml, streptomycin 10 mg/ml

Row | Compound | inhibition of cAMP-dependent protein kinase [1] | inhibition of CA^2+-dependent protein kinase [2] | inhibition of protein kinase C (PKC) [3] | cases in which the virus is eliminated from the liver [4] | further cases with clearly reduced number of viruses in the blood [4] | inhibition zone [5] | inhibition zone [6]
1 | O=C1O[C@H]2[C@@H]3OC(=O)c4cc(O)c(O)c(O)c4-c4c(cc(O)c(O)c4O)C(=O)OC[C@H]2O[C@@H](OC(=O)c2cc(O)c(O)c(O)c2)[C@@H]3OC(=O)c2cc(O)c(O)c3c2[C@@H]2C1=CC(=O)[C@](O)(O3)C2(O)O [geraniin] | most effective | most effective | most effective | – | – | – | –
2 | phenazine-derivative of the geraniin | most effective | most effective | most effective | – | – | – | –
3 | O=C1OC2C3OC(=O)C4=CC(=O)C5(O)Oc6c(O)c(O)cc(c6C4C5(O)O)C(=O)OC2C(OC(=O)c2cc(O)c(O)c(O)c2)OC3COC(=O)c2cc(O)c(O)c3c2C2C1=CC(=O)C(O)(O3)C2(O)O (stereo not shown) [amariin] | most effective | most effective | most effective | – | – | – | –
4 | interferon α | – | – | – | 20-30% | 30% | – | –
5 | [H]/N=C(/N)N[C@H]1[C@H](O)[C@@H](O)[C@H](O[C@@H]2O[C@@H](C)[C@](O)(C=O)[C@H]2O[C@@H]2O[C@@H](CO)[C@H](O)[C@@H](O)[C@@H]2NC)[C@@H](N/C(N)=N\[H])[C@@H]1O [streptomycin] | – | – | – | – | – | 35 mm | 35 mm
